This is an account of results in PMC11310889, “Ribosomal translation of fluorinated non-canonical amino acids for de novo biologically active fluorinated macrocyclic peptides” (Chemical Science, 2024).

One assay deals with human EphA2 (Homo sapiens, UniProt P29317). Description: SPR binding kinetics to EphA2. The note with it: Biacore T200, 25 °C, HBS-EP+ buffer pH 7.4 with 0.1% DMSO, biotinylated human EphA2 on CAP chip (1050 RU), single cycle kinetics, five concentrations, 1:1 model. As for the experimental part:
The cDNAs was detected by QuantStudio™ real-time PCR system (Applied Biosystems), then PCR was recovered by phusion® high-fidelity DNA polymerase and transcribed in vitro to construct a mRNA library rich in BAM complex(or EphA2) binding sequences to prepare for the next round of screening. Starting with the second round of screening, six more negative selections were added before positive selections to remove unwanted beads binders. Finally, the cDNAs recovered in the sixth(or fifth) round was deep sequencing using NovaSeq 6000 system (Ilumina).
General procedures for solid-phase synthesis of selected peptides
In this study, macrocyclic peptides and fluorinated macrocyclic peptides were synthesized by standard Fmoc solid phase peptide synthesis (SPPS). Firstly, a mixture (0.3 mmol Fmoc-Gly-OH and 0.3 mmol HOBT dissolved in 8 mL DMF and 0.5 mL DIC) was prepared, and 0.5 g Rink Amide MBHA resin was added to the mixture, and then reacted under nitrogen protection for 1.5 h. The resin was filtered and washed at least three times with DMF and DCM, and a deprotective agent (DMF solution containing 20% piperidine) was added to remove the Fmoc protective group. Then a new mixture (0.9 mmol Fmoc-AA-OH and 0.9 mmol HOBT dissolved in 10 mL DMF and 1 mL DIC) was prepared and condensation reaction was carried out under nitrogen protection for 1 hour.
By repeating the steps of deprotection and condensation reaction, the desired peptide was finally obtained, and the bromoacetyl group was connected to the N-terminal free α-amino group of the resin peptide. […]
The binding kinetics between the selected peptides and EphA2 were tested by SPR using a Biacore T200 instrument (GE Healthcare) at 25 °C. […] Five different concentrations of peptides were injected at the flow rate of 30 μL/min, and their kinetic constants were determined. The binding kinetic was quantified by single cycle kinetic method. Finally, the binding sensorgrams was analyzed by Biacore evaluation software, and the standard 1:1 model was used for fitting. […]
(Surface plasmon resonance follows binding to a sensor surface in real time, without labels.)

The next assay has as its system T1, BAM complex.
T1 construct: made in house; host or cells: E. coli BL21(DE3), strain obtained from Xinmiao Fu, Fujian Normal University
Description: SPR binding kinetics to BAM complex. Also noted: species or system E. coli. The note with it: Biacore T200, 25 °C, multi-cycle kinetics, 1:1 model. The procedure: Expression and purification of the BAM complex
The E. coli BL21(DE3) cells containing all five Bam proteins (BamA, B, C, D, and E) was obtained from Xinmiao Fu of Fujian Normal University and used for expression and purification.
The BL21(DE3) cells plated onto LB-ampicillin agar plates and incubated overnight at 37 °C. A 20 mL culture incubated overnight at 37°C was prepared from a single colony in LB medium supplemented with 100 mg/L of ampicillin. The strain was inoculated into fresh LB liquid medium according to the inoculation ratio of 1:100 and incubated at 37 ℃ for about 4 hours until the OD600 reached about 1.0. The temperature of the incubator was set to 20 ℃ and then cultured for 1 hour, and 200 uM IPTG was added to induce overnight. First of all, the induced cells were collected by freezing centrifuge 3000 rpm for 30 min, and the collected cells were resuspended with Buffer 1 (20 mM Tris-HCl, pH 8.0, 150 mM NaCl), and then crushed low temperature and pressure with a high pressure crusher. The broken cells were centrifuged 1 hour at 4 °C for18000 rpm by high speed centrifuge. After centrifugation at 4 °C 18000 rpm for 1 hour, and the supernatant was discarded and the cell membrane was collected. The collected cell membranes were resuscitated with Buffer 2 (20 mM Tris-HCl, pH 8.0, 300 mM NaCl, 1% DDM) and then dissolved at 4 °C for 2 hours. After dissolving the membrane, the supernatant was collected by high speed centrifuge at 18,000 rpm. The 20 mM imidazole was added to the supernatant and incubated with a 2 mL Ni-NTA sefinoseTM resin column for 1 hour. After incubation, 10 column volumes were washed with Buffer 3 (20 mM Tris-HCl, pH 8.0, 300 mM NaCl, 0.025%DDM) containing 30 mM and 50 mM imidazole respectively. Then, the protein was eluted with Buffer 3 containing 200 mM imidazole, and the eluted protein was collected. Finally, using the 20-fold molar excess of EZ-LinkTM Sulfo-NHS-LC-LC-Biotin for BAM complex, and incubate reaction on ice for 2 hours. After the protein labeling is completed, dialysis is used to purify the labeled protein to remove the remaining unreacted and hydrolyzed biotin reagents. […]
The mobile phase was 0.1% TFA aqueous solution / acetonitrile containing 0.1%
TFA. The purified macrocyclic peptides and fluorinated macrocyclic peptides were confirmed by electrospray ionization mass spectrometry (ESI-MS).
Binding kinetics analysis by SPR
The binding kinetics between the selected peptides and EphA2 were tested by SPR using a Biacore T200 instrument (GE Healthcare) at 25 °C. In this study, the running buffer was HBS-EP+ buffer (10 mM HEPES-KOH (pH 7.4), 150 mM NaCl, 50 μM EDTA, 0.05% Tween 20) containing 0.1% DMSO. Biotin capture kit (GE Healthcare) was used to fix human EphA2 on the surface of Biacore CAP chip with a density of 1050 RU. Five different concentrations of peptides were injected at the flow rate of 30 μL/min, and their kinetic constants were determined. The binding kinetic was quantified by single cycle kinetic method. Finally, the binding sensorgrams was analyzed by Biacore evaluation software, and the standard 1:1 model was used for fitting.
The binding kinetics between the selected peptides and BAM complex were tested by SPR using […]
a Biacore T200 instrument (GE Healthcare) at 25 °C. In this study, the running buffer was HBS-EP+ […]
0.1% DMSO. The Series S Sensor Chip CM5 was used to fix BAM complex on the surface of Biacore CM5 chip with a density of 9500 RU. The binding mode was multi-cycle kinetics (one sample concentration one cycle). Finally, the binding sensorgrams was analyzed by Biacore evaluation software, and the standard 1:1 model was used for fitting.
Preliminary evaluation of the antibacterial activity of macrocyclic peptides against E. coli […]
Remove the previously preserved E. coli W3110 cells from the -80 °C refrigerator, scrape a little, inoculate it into 1 mL LB liquid medium, and culture overnight in 37°C shaker. The strain was […]

Where a SMILES comes first, the peptide text is derived from it. Bridges are numbered along the chain shown (N, C = ends). [ ]: non-standard residue; d: D form. Phe(3,4-F2) = N[C@@H](Cc1ccc(F)c(F)c1)C(=O)O; dPhe(4-F) = N[C@H](Cc1ccc(F)cc1)C(=O)O

Sequence of human EphA2 (P29317 24-976): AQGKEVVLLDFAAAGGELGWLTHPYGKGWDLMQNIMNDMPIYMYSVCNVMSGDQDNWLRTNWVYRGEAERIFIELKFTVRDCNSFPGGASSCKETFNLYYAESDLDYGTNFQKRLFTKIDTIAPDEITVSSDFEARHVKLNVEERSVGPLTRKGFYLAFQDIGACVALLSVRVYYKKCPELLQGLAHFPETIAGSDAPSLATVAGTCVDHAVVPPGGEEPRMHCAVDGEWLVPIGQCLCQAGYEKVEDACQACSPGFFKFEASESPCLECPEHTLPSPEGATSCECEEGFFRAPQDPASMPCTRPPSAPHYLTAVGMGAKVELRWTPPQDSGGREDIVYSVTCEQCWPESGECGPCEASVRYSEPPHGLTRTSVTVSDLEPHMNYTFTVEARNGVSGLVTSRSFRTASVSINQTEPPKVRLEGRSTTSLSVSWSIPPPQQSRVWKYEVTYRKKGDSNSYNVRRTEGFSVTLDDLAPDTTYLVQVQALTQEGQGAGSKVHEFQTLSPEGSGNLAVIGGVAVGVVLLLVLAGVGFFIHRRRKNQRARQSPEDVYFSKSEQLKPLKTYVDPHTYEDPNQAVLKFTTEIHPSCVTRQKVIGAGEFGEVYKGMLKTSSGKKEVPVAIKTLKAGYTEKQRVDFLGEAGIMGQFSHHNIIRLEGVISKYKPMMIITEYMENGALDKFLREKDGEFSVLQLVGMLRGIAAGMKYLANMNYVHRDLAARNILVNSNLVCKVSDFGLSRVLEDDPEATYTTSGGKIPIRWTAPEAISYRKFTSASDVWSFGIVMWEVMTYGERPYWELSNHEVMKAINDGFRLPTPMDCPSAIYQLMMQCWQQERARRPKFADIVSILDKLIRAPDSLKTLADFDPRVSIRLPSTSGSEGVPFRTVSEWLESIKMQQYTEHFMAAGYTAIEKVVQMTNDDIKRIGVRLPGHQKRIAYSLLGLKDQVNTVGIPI
T1 sequence (P0A903 25-344): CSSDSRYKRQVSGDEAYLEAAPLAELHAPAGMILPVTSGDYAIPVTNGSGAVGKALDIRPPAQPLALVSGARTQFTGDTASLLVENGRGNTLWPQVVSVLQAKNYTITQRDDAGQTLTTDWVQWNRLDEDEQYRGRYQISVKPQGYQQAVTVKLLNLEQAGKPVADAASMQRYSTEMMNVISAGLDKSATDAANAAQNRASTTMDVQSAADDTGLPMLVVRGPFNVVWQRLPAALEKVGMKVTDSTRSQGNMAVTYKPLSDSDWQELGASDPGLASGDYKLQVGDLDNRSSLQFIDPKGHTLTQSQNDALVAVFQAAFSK
T1 sequence (P0AC02 20-245, further chain): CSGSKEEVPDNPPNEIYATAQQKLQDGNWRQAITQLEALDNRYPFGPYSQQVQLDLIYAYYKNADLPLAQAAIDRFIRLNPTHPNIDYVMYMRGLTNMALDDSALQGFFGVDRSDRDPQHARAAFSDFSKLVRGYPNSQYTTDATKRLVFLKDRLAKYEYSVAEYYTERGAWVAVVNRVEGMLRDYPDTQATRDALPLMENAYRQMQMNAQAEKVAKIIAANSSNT
T1 sequence (P0A937 20-113, further chain): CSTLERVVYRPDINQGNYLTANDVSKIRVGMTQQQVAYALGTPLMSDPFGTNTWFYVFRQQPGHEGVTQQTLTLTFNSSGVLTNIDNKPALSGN
T1 sequence (P77774 20-392, further chain): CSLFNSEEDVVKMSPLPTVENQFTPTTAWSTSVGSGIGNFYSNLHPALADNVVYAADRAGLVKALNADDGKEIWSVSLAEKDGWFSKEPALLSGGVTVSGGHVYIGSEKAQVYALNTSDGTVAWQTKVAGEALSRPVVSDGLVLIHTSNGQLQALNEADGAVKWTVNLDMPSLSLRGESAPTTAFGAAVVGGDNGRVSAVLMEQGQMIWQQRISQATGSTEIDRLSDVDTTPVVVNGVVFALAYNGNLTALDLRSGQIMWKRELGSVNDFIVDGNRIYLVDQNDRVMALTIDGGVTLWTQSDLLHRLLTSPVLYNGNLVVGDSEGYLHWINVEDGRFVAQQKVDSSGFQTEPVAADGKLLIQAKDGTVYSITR

`CC[C@H](C)[C@@H]1NC(=O)[C@@H](Cc2ccc(F)cc2)NC(=O)CSC[C@@H](C(=O)NCC(N)=O)NC(=O)[C@H](Cc2ccc(O)cc2)NC(=O)[C@H](CCCNC(=N)N)NC(=O)[C@H](CCC(N)=O)NC(=O)[C@H]([C@@H](C)O)NC(=O)[C@H]([C@@H](C)O)NC(=O)[C@H](Cc2ccc(F)c(F)c2)NC(=O)[C@H](CCCCN)NC(=O)[C@H](CC(C)C)NC(=O)[C@H](C)NC(=O)[C@H](Cc2ccc(O)cc2)NC(=O)[C@H](Cc2c[nH]c3ccccc23)NC1=O` [Ep-F1] ({CH2CO}-[dPhe(4-F)]IWYALK[Phe(3,4-F2)]TTQRYCG-NH2; thioether N-14): the Kd at human EphA2 came to 9.9 nM. That is a single-digit nanomolar value.

Take `CC(C)C[C@@H]1NC(=O)[C@@H]2CCCN2C(=O)[C@H](Cc2c[nH]cn2)NC(=O)[C@@H](Cc2ccc(F)cc2)NC(=O)CSC[C@@H](C(=O)N[C@@H](Cc2c[nH]c3ccccc23)C(=O)N[C@H](C(=O)N[C@@H](CCCCN)C(=O)N[C@@H](CO)C(=O)NCC(N)=O)[C@@H](C)O)NC(=O)CNC(=O)[C@H](Cc2ccc(F)c(F)c2)NC(=O)[C@H](CC(N)=O)NC(=O)[C@H](Cc2ccc(O)cc2)NC1=O` [Ep-F2] ({CH2CO}-[dPhe(4-F)]HPLYN[Phe(3,4-F2)]GCWTKSG-NH2; thioether N-9): on human EphA2, binding was put at a Kd of 0.25 nM. This Kd lies about 40-fold lower than the previous one.

Regarding `CC[C@H](C)[C@@H]1NC(=O)[C@H](CC(C)C)NC(=O)[C@@H](Cc2ccc(O)cc2)NC(=O)CSC[C@@H](C(=O)NCC(N)=O)NC(=O)[C@H](C(C)C)NC(=O)[C@H](CCCNC(=N)N)NC(=O)[C@H](Cc2ccccc2)NC(=O)[C@@H]2CCCN2C(=O)[C@H](Cc2c[nH]cn2)NC(=O)[C@H](CO)NC(=O)[C@H](CCCNC(=N)N)NC(=O)[C@H](CO)NC(=O)[C@H](Cc2ccc(O)cc2)NC(=O)[C@H](Cc2c[nH]c3ccccc23)NC1=O` [BAM-D1] ({CH2CO}-[dY]LIWYSRSHPFRVCG-NH2; thioether N-14), the “ka for BAM complex” value with BAM complex (CM5 chip) is 0.43 ×10 4 M-1s-1. At BAM complex (HBS-EP+ buffer pH 7.4 with 0.1% DMSO, BAM complex on CM5 chip (9500 RU)), this compound had a Kd of 763 nM.

For the compound “Ep-F2-M2: variant of Ep-F2 measured by SPR (Fig. S4) to examine the role of fluorination (FHPLYNFGCWTKSG; Parent Ep-F2 is printed as Ac-(4-F-DPhe)HPLYN(2F-LPhe)GCWTKSG-NH2)”, in the assay with human EphA2, the Kd is 0.29 nM.

As a reminder, the Kd is the equilibrium constant for the complex coming apart.
